Measured values from ChEMBL document CHEMBL1151546, “A new structural analogue antagonist of peptido-leukotrienes. The discovery of bay x7195” (Bioorg Med Chem Lett, 1993).
Blank lines part the entries; values can stand above or below the compound they belong to.

Tests used:
[1] = molecular target: T1, Cysteinyl leukotriene receptor 1 (Cavia porcellus, UniProt Q2NNR5); assay: Inhibition of [3H]LTD4 binding to guinea-pig lung membranes; assay type: tissue-based, Membrane
T1 sequence (Q2NNR5 whole entry): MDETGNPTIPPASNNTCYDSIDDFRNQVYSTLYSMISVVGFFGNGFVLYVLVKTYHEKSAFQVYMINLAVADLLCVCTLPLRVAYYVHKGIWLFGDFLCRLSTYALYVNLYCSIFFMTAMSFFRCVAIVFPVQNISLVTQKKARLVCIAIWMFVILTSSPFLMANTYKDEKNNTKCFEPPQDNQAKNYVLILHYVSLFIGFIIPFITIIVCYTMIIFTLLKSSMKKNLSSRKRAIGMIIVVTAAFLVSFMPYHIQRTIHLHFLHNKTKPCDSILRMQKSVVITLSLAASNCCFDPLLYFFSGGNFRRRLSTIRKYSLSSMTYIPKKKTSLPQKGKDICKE

[2] = molecular target: T2, Cysteinyl leukotriene receptor 1 (Cavia porcellus) (UniProt Q2NNR5); assay: Compound was evaluated for its antagonist affinity at 1 uM on guinea-pig trachea rings against LTD4 receptor; assay type: functional, tissue-based
T2 sequence (whole entry): T1 sequence (Q2NNR5 whole entry)

[3] = molecular target: T2, Cysteinyl leukotriene receptor 1 (Cavia porcellus); assay: Compound was evaluated for its antagonist affinity at 10 (uM) on guinea-pig trachea rings against LTD4 receptor; assay type: functional, tissue-based
Cavia porcellus [4] = species on record: Cavia porcellus; assay: spontaneously compound was tested for oral activity against LTD4 in spontaneously-breathing guinea pigs; assay type: functional; conditions: read-out: ID50 (the source's name)
[5] = molecular target: T3, Cysteinyl leukotriene receptor 1 (Homo sapiens) (UniProt Q9Y271); assay: Compound was evaluated for its antagonist affinity against LTD4 on human bronchial muscle; assay type: functional, tissue-based; conditions: Muscle tissue
T3 sequence (whole entry): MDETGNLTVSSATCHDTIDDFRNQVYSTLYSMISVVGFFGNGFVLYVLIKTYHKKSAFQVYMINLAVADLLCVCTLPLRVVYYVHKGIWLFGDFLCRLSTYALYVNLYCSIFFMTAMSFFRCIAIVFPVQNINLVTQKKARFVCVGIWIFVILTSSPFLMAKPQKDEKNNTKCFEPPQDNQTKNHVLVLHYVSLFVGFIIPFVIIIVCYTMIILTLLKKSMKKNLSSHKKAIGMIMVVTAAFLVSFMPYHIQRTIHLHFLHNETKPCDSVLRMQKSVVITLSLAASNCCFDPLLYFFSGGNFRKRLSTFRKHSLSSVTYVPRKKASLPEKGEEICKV

[6] = molecular target: T2, Cysteinyl leukotriene receptor 1 (Cavia porcellus); assay: (§1) Compound was evaluated for its antagonist affinity at 0.1 uM on guinea-pig trachea rings against LTD4 receptor; assay type: functional, tissue-based
Cavia porcellus [7] = species on record: Cavia porcellus; assay: Compound was evaluated for its agonist activity on guinea-pig ileum, value expressed as the negative logarithm of the ED50 value; assay type: functional
[8] = molecular target: T1, Cysteinyl leukotriene receptor 1; assay: Compound was evaluated for its binding affinity on guinea-pig ileum; assay type: tissue-based
[9] = molecular target: T1, Cysteinyl leukotriene receptor 1; assay: as §1; assay type: functional, tissue-based; conditions: read-out: pA2 (converted)
Cavia porcellus [10] = assay: Compound was tested in vivo for antagonistic potency of LTD4 induced contractions of guinea-pig trachea after oral administration; assay type: functional; conditions: read-out: ID50 (the source's name)

Structure (SMILES): O=C(O)CCC[C@H](O)[C@@H](/C=C\CCCCCCCCOc1ccccc1)Sc1ccc(C(=O)O)cc1
Ki [1]: 631 nM

Structure (SMILES): O=C(O)CCC[C@H](O)[C@@H](/C=C\CCCCCCCCc1ccccc1)Sc1ccc(C(=O)O)cc1
Ki [1]: 316 nM

Structure (SMILES): O=C(O)CCC[C@H](O)[C@@H](/C=C/c1cccc(OCCCCOc2ccccc2)c1)Sc1ccc(C(=O)O)cc1
pKB [3]: 6.8

Structure (SMILES): O=C(O)CCC[C@H](O)[C@@H](/C=C/CCc1ccccc1)Sc1ccc(C(=O)O)cc1
Ki [1]: > 100000 nM

Structure (SMILES): O=C(O)CCC[C@H](O)[C@@H](/C=C\CCCCCCCCCCCCCc1ccccc1)Sc1ccc(C(=O)O)cc1
Ki [1]: 5010 nM

Structure (SMILES): CCCCC/C=C\C\C=C/C=C/C=C/[C@@H](SCC(=O)O)[C@@H](O)CCCC(=O)O
pD2 (Cavia porcellus [7]): 8.5 | Ki [8]: 2 nM

Structure (SMILES): O=C(O)CCC[C@H](O)[C@@H](/C=C\CCCCCc1ccccc1)Sc1ccc(C(=O)O)cc1
Ki [1]: 20000 nM

Structure (SMILES): O=C(O)CCC[C@H](O)[C@@H](/C=C\Cc1ccccc1OCCCOc1ccccc1)Sc1ccc(C(=O)O)cc1
pKB [3]: < 5

Structure (SMILES): O=C(O)CCCCC(/C=C\Cc1ccc(OCCCCOc2ccccc2)cc1)Sc1ccc(C(=O)O)cc1 (stereo unspecified)
pKB [5]: 6.8 | pKB [6]: 8.3

Structure (SMILES): O=C(O)CCC[C@H](O)[C@@H](/C=C\Cc1cccc(OCCCOc2ccccc2)c1)Sc1ccc(C(=O)O)cc1
pKB [3]: < 5

Structure (SMILES): O=C(O)CCC[C@H](O)[C@@H](/C=C\c1cccc(OCCCCOc2ccccc2)c1)Sc1ccc(C(=O)O)cc1
pKB [3]: < 5

Structure (SMILES): CCCCC/C=C\C\C=C/C=C/C=C/[C@@H](SC[C@H](N)C(=O)NCC(=O)O)[C@@H](O)CCCC(=O)O [LEUKOTRIENE D4]
pD2 (Cavia porcellus [7]): 8.4

Structure (SMILES): O=C(O)CCC[C@H](O)[C@@H](/C=C\CCCCCCCCCc1ccccc1)Sc1ccc(C(=O)O)cc1
Ki [1]: 251 nM

Structure (SMILES): CCCCC/C=C\C\C=C/C=C/C=C/[C@@H](Sc1ccccc1C(=O)O)[C@@H](O)CCCC(=O)O
pD2 (Cavia porcellus [7]): 6.9 | Ki [8]: 25.1 nM

Structure (SMILES): O=C(O)CCC(/C=C/Cc1ccc(OCCCCOc2ccccc2)cc1)Sc1ccc(C(=O)O)cc1 (single isomer, unassigned; (-))
Kb [9]: 100 nM

Structure (SMILES): O=C(O)CCC[C@H](O)[C@@H](/C=C\CCCCCCCCCOc1ccccc1)Sc1ccc(C(=O)O)cc1
Ki [1]: 316 nM

Structure (SMILES): O=C(O)CCC(/C=C/Cc1ccc(OCCCCOc2ccccc2)cc1)Sc1ccc(C(=O)O)cc1 (single isomer, unassigned; (+))
Kb [9]: 3.98 nM

Structure (SMILES): O=C(O)CCC[C@H](O)[C@@H](/C=C\CCCCCCCCCCCc1ccccc1)Sc1ccc(C(=O)O)cc1
Ki [1]: 1260 nM

Structure (SMILES): O=C(O)CCC[C@H](O)[C@@H](/C=C\CCc1ccccc1)Sc1ccc(C(=O)O)cc1
Ki [1]: > 100000 nM

Structure (SMILES): O=C(O)CCC[C@H](O)[C@@H](/C=C\c1ccccc1OCCCCOc1ccccc1)Sc1ccc(C(=O)O)cc1
pKB [3]: < 5

Continued, in another order:

Ki [1]: > 100000 nM
Structure (SMILES): O=C(O)CCC[C@H](O)[C@@H](/C=C/CCCc1ccccc1)Sc1ccc(C(=O)O)cc1

pKB [2]: 6.9
Structure (SMILES): O=C(O)CC(/C=C\Cc1ccc(OCCCCOc2ccccc2)cc1)Sc1ccc(C(=O)O)cc1 (stereo unspecified)

pKB [2]: 7
Structure (SMILES): O=C(O)CCCC(/C=C\Cc1ccc(OCCCCOc2ccccc2)cc1)Sc1ccc(C(=O)O)cc1 (stereo unspecified)

pKB [5]: 8 | pKB [6]: 8.4
Structure (SMILES): O=C(O)CCC(/C=C\Cc1ccc(OCCCCOc2ccccc2)cc1)Sc1ccc(C(=O)O)cc1 (stereo unspecified)
ED50 (Cavia porcellus [4]): 2 mg/kg

pKB [3]: 6.5
Structure (SMILES): O=C(O)CCC[C@H](O)[C@@H](/C=C\c1ccc(OCCCCOc2ccccc2)cc1)Sc1ccc(C(=O)O)cc1

Ki [8]: 2 nM
Structure (SMILES): CCCCC/C=C\C\C=C/C=C/C=C/[C@@H](Sc1cccc(C(=O)O)c1)[C@@H](O)CCCC(=O)O
pD2 (Cavia porcellus [7]): 8.2

pKB [2]: 6.4
Structure (SMILES): O=C(O)c1ccc(SC(/C=C\Cc2ccc(OCCCCOc3ccccc3)cc2)C(=O)O)cc1 (stereo unspecified)

pKB [3]: 8.3
Structure (SMILES): O=C(O)CCC[C@H](O)[C@@H](/C=C\Cc1ccc(OCCCCOc2ccccc2)cc1)Sc1ccc(C(=O)O)cc1
ED50 (Cavia porcellus [10]): ~3 mg/kg

Ki [8]: 100 nM
Structure (SMILES): CCCCC/C=C\C\C=C/C=C/C=C/[C@@H](Sc1ccc(C(=O)O)cc1)[C@@H](O)CCCC(=O)O
